What was measured:
Test in all cases: Cell proliferation assay (Alamar Blue)
Assay type in all cases: cell-based
BxPC3 = settings: Homo sapiens, BXPC-3, 96 h, BxPC3 cells, four days
Procedure: (§1) A representative cell-proliferation assay protocol using Alamar Blue dye (stored at 4°C, use 20ul per well) is described hereafter. 96-well plate setup and compound treatment • a. Split and trypsinize cells. • b. Count cells using hemocytometer. • c. Plate 4,000-5,000 cells per well in 100 µl of medium and seed into a 96-well plate according to the following plate layout. Add cell culture medium only to wells B10 to B12. Wells B1 to B9 have cells but no compound added. [formula] [formula] • d. Add 100 µl of 2X drug dilution to each well in a concentration shown in the plate layout above. At the same time, add 100 µl of media into the control wells (wells B10 to B12). Total volume is 200 µl/well. • e. Incubate four (4) days at 37°C, 5% CO2 in a humidified incubator. • f. Add 20µl Alamar Blue reagent to each well. • g. Incubate for four (4) hours at 37°C, 5% CO2 in a humidified incubator. • h. Record fluorescence at an excitation wavelength of 544nm and emission wavelength of 590nm using a microplate reader.
(§2) In the assays, cells are cultured with a test compound for approximately four days, the dye then is added to the cells and fluorescence of […] dye is detected after approximately four hours. Different types of cells can be utilized in the assays (e.g., HCT-116 human colorectal carcinoma cells, PC-3 human prostatic cancer cells and MiaPaca human pancreatic carcinoma cells). Anti-proliferative effects of representative compounds are provided hereafter.

PanC1 = settings: Homo sapiens, PANC-1, 96 h, PanC1 cells, four days
Procedure: as §1, §2

MDAMB231 = settings: Homo sapiens, MDA-MB-231, 96 h, MDAMB231 cells, four days
Procedure: as §1, §2

Row | Compound | IC50 (BxPC3) | IC50 (PanC1) | IC50 (MDAMB231)
1 | O=C(O)c1ccc2c(c1)nc(Nc1ccc(Cl)c(C(F)(F)F)c1)c1ccncc12 [drawing 476] | 2.6 µM | 17.9 µM | 
2 | C#Cc1cccc(Nc2nc3cc(C(=O)O)ccc3c3cnc(NC4CCNCC4)nc23)c1 [drawing 473] | 25.3 µM | > 50 µM | 
3 | CCOc1ncc2c(n1)c(Nc1cccc(C(F)(F)F)c1)nc1cc(C(=O)O)ccc12 [drawing 479] | 49.6 µM | > 50 µM | 
4 | C#Cc1cccc(Nc2nc3cc(C(=O)O)ccc3c3cnc(NCCC)nc23)c1 [drawing 471] | 3 µM | 8.12 µM | 
5 | O=C(O)c1ccc2c(c1)nc(Nc1ccccc1)c1nc(NCCO)ncc12 [drawing 464] | 23.5 µM | > 50 µM | 
6 | CN(C)c1ncc2c(n1)c(Nc1cccc(Cl)c1)nc1cc(C(=O)O)ccc12 [drawing 481] | 42.7 µM | > 50 µM | 
7 | Nc1ncc2c(n1)c(Nc1ccc(F)c(Cl)c1)nc1cc(C(=O)O)ccc12 [drawing 487] | 0.7 µM | 8.03 µM | 
8 | CCN(CC)CCNc1ncc2c(n1)c(Nc1ccccc1)nc1cc(C(=O)O)ccc12 [drawing 467] | 10.7 µM | > 50 µM | 
9 | COCCNc1ncc2c(n1)c(Nc1ccccc1)nc1cc(C(=O)O)ccc12 [drawing 463] | 3.92 µM | 32.6 µM | 
10 | O=C(O)c1ccc2c(c1)nc(Nc1ccccc1)c1nc(NCCCN3CCOCC3)ncc12 [drawing 469] | 1.65 µM | > 50 µM | 
11 | C#Cc1cccc(Nc2nc3cc(C(=O)O)ccc3c3cnc(NC4CC4)nc23)c1 [drawing 470] | 1.05 µM | 5.79 µM | 
12 | C#Cc1cccc(Nc2nc3cc(C(=O)O)ccc3c3cnc(NCCOC)nc23)c1 [drawing 472] | 1.17 µM | 4.61 µM | 
13 | O=C(O)c1ccc2c(c1)nc(Nc1ccc(F)c(Cl)c1)c1ncncc12 [drawing 445] | 3.55 µM | 3.37 µM | 
14 | O=C(O)c1ccc2c(c1)nc(Nc1ccccc1)c1nc(NC3CCNCC3)ncc12 [drawing 466] | 8.36 µM | > 50 µM | 
15 | CCNc1ncc2c(n1)c(Nc1cccc(Cl)c1)nc1cc(C(=O)O)ccc12 [drawing 485] | 2.37 µM | 1.61 µM | 
16 | C#Cc1cccc(Nc2nc3cc(C(=O)O)ccc3c3cnc(NCCCN4CCOCC4)nc23)c1 [drawing 474] | 3.6 µM | 11.2 µM | 
17 | COCCNc1ncc2c(n1)c(Nc1ccc(F)c(Cl)c1)nc1cc(C(=O)O)ccc12 [drawing 489] | 1.61 µM | > 50 µM | 
18 | C#Cc1cccc(Nc2nc3cc(C(=O)O)ccc3c3cnc(NCCOCC)nc23)c1 [drawing 490] | 0.69 µM | 2.41 µM | 

Row | Compound | IC50 (BxPC3) | IC50 (PanC1) | IC50 (MDAMB231)
19 | CNc1ncc2c(n1)c(Nc1cccc(Cl)c1)nc1cc(C(=O)O)ccc12 [drawing 480] | 2.56 µM | 8.3 µM | 
20 | CNc1ncc2c(n1)c(Nc1ccc(F)c(Cl)c1)nc1cc(C(=O)O)ccc12 [drawing 486] | 1.46 µM | > 50 µM | 
21 | O=C(O)c1ccc2c(c1)nc(Nc1cccc(C(F)(F)F)c1)c1nc(NC3CC3)ncc12 [drawing 484] | 10 µM | 2.03 µM | 
22 | O=C(O)c1ccc2c(c1)nc(Nc1cccc(C(F)(F)F)c1)c1ncncc12 [drawing 478] | 4.31 µM | 35.2 µM | 
23 | O=C(O)c1ccc2c(c1)nc(Nc1ccccc1)c1nc(NCCCO)ncc12 [drawing 465] | 9.41 µM | 34.2 µM | 
24 | O=C(O)c1ccc2c(c1)nc(Nc1ccccc1)c1nc(NCCN3CCOCC3)ncc12 [drawing 468] | 4.67 µM | 27.4 µM | 
25 | O=C(O)c1ccc2c(c1)nc(Nc1ccc(F)c(Cl)c1)c1nc(NC3CC3)ncc12 [drawing 488] | 9.48 µM | 8.53 µM | 
26 | CC(C)Nc1ncc2c(n1)c(Nc1cccc(Cl)c1)nc1cc(C(=O)O)ccc12 [drawing 483] | 36.9 µM | 33.2 µM | 
27 | Nc1ncc2c(n1)c(Nc1cccc(Cl)c1)nc1cc(C(=O)O)ccc12 [drawing 482] | 0.61 µM | 3.62 µM | 
28 | O=C(O)c1ccc2c(c1)nc(Nc1ccccc1)c1nc(NC3CC3)ncc12 [drawing 461] | 2.16 µM | 5.02 µM | 
29 | CCCNc1ncc2c(n1)c(Nc1ccccc1)nc1cc(C(=O)O)ccc12 [drawing 462] | 5.83 µM | 4.28 µM | 
30 | Clc1cccc(Nc2nc3cc(-c4nnn[nH]4)ccc3c3cnccc23)c1 [drawing 458] |  | > 50 µM | 
31 | O=C(O)c1ccc2c(c1)nc(Nc1cccc(Cl)c1)c1nc(NC3CC3)ncc12 [drawing 477] | 1.95 µM | 4.61 µM | 
32 | C#Cc1cccc(Nc2nc3cc(C(=O)O)ccc3c3cnc(NC)nc23)c1 [drawing 475] | 1.6 µM | 13.8 µM | 
33 | Fc1cccc(Nc2nc3cc(-c4nnn[nH]4)ccc3c3cnccc23)c1 [drawing 453] |  | > 50 µM | 
34 | C#Cc1cccc(Nc2nc3cc(C(=O)O)ccc3c3cnc(NCCCN4CCOCC4)nc23)c1 [drawing 402] |  |  | 12.5 µM
35 | Fc1cc(Nc2nc3cc(-c4nnn[nH]4)ccc3c3cnccc23)ccc1Cl [drawing 454] |  | > 50 µM | 
36 | O=C(O)c1ccc2c(c1)nc(Nc1cccc(C(F)(F)F)c1)c1nc(NC3CC3)ncc12 [drawing 412] |  |  | 9.19 µM

Further lines, results first:

Row | IC50 (BxPC3) | IC50 (PanC1) | IC50 (MDAMB231) | Compound
37 | 0.33 µM | > 50 µM |  | NC(=O)c1ccc2c(c1)nc(Nc1cccc(C(F)(F)F)c1)c1nc(NC3CC3)ncc12 [drawing 507]
38 | 1.52 µM | 44.9 µM |  | CN(C)CCNc1ncc2c(n1)c(Nc1ccc(F)c(Cl)c1)nc1cc(C(=O)O)ccc12 [drawing 504]
39 | 0.97 µM | 3.1 µM |  | C#Cc1cccc(Nc2nc3cc(C(=O)O)ccc3c3cnc(NCCCOC(C)C)nc23)c1 [drawing 492]
40 | 11.1 µM | > 50 µM |  | O=C(O)c1ccc2c(c1)nc(Nc1ccc(F)c(Cl)c1)c1nc(NCc3ccccn3)ncc12 [drawing 505]
41 | 43.5 µM | > 50 µM |  | O=C(O)CCNc1ncc2c(n1)c(Nc1cccc(Cl)c1)nc1cc(C(=O)O)ccc12 [drawing 498]
42 | 8.76 µM | 0.44 µM |  | CCOC(=O)CCNC(=O)c1ccc2c(c1)nc(Nc1cccc(C(F)(F)F)c1)c1nc(NC3CC3)ncc12 [drawing 514]
43 | 2.6 µM | 27.2 µM |  | O=C(O)c1ccc2c(c1)nc(Nc1cccc(C(F)(F)F)c1)c1ccncc12 [drawing 500]
44 | 3 µM | 18.9 µM |  | CNC(=O)c1ccc2c(c1)nc(Nc1cccc(C(F)(F)F)c1)c1nc(NC3CC3)ncc12 [drawing 509]
45 | 9.89 µM | 2.81 µM |  | O=C(O)c1ccc2c(c1)nc(Nc1cccc(F)c1)c1nc(NC3CC3)ncc12 [drawing 502]
46 | 40 µM | > 50 µM |  | C#Cc1cccc(Nc2nc3cc(C(=O)OC)ccc3c3cnc(NOC)nc23)c1 [drawing 495]
47 | 8.88 µM | > 50 µM |  | Cc1ncc2c(n1)c(Nc1cccc(Cl)c1)nc1cc(C(=O)O)ccc12 [drawing 494]
48 | 0.48 µM | 1.04 µM |  | C#Cc1cccc(Nc2nc3cc(C(=O)O)ccc3c3cnc(NCCCOCC)nc23)c1 [drawing 491]
49 | 8.68 µM | 3.48 µM |  | COc1cccc(Nc2nc3cc(C(=O)O)ccc3c3cnc(NC4CC4)nc23)c1 [drawing 503]
50 | 20.9 µM | > 50 µM |  | NC(=O)CCNc1ncc2c(n1)c(Nc1cccc(Cl)c1)nc1cc(C(=O)O)ccc12 [drawing 497]
51 | 3.16 µM | 20.9 µM |  | O=C(O)c1ccc2c(c1)nc(Nc1ccc(F)c(Cl)c1)c1nc(NCc3cccnc3)ncc12 [drawing 510]
52 | 2.86 µM | 41.5 µM |  | COC(CNc1ncc2c(n1)c(Nc1ccc(F)c(Cl)c1)nc1cc(C(=O)O)ccc12)OC [drawing 506]
53 | 2.73 µM | 16 µM |  | O=C(NC1CC1)c1ccc2c(c1)nc(Nc1cccc(C(F)(F)F)c1)c1nc(NC3CC3)ncc12 [drawing 508]
54 | 2.62 µM | 25.5 µM |  | COC(=O)c1ccc2c(c1)nc(Nc1cccc(Cl)c1)c1nc(NCCC(N)=O)ncc12 [drawing 496]
55 | 40.1 µM | 3.72 µM |  | O=C(O)c1ccc2c(c1)nc(Nc1ccccc1)c1nc(Nc3ccccc3)ncc12 [drawing 512]
56 | 2.23 µM | 38 µM |  | Cc1cccc(Nc2nc3cc(C(=O)O)ccc3c3cnccc23)c1 [drawing 499]
57 | 0.9 µM | 9.88 µM |  | CC(C)OC(=O)Nc1ccc2c(c1)nc(Nc1cccc(C(F)(F)F)c1)c1nc(NC3CC3)ncc12 [drawing 513]
58 | 7.33 µM |  |  | O=C(O)c1ccc2c(c1)nc(Nc1ccc(F)c(Cl)c1)c1nc(NCc3ccncc3)ncc12 [drawing 511]
59 | 14.9 µM | 16.1 µM |  | O=C(O)c1ccc2c(c1)nc(Nc1cc(F)cc(F)c1)c1nc(NC3CC3)ncc12 [drawing 501]
60 | 15.8 µM | > 50 µM |  | O=C(O)c1ccc2c(c1)nc(Nc1cccc(Cl)c1)c1nc(O)ncc12 [drawing 493]
